Values quoted from earlier work, collected in US11452734B2, “Method of treating and preventing secondary hyperparathyroidism” (OPKO IRELAND GLOBAL HOLDINGS, LTD., priority 2006, dated 2022).

Target: T1, Vitamin D receptors (VDR) (Homo sapiens, UniProt P11473)
T1 sequence (P11473 1-427): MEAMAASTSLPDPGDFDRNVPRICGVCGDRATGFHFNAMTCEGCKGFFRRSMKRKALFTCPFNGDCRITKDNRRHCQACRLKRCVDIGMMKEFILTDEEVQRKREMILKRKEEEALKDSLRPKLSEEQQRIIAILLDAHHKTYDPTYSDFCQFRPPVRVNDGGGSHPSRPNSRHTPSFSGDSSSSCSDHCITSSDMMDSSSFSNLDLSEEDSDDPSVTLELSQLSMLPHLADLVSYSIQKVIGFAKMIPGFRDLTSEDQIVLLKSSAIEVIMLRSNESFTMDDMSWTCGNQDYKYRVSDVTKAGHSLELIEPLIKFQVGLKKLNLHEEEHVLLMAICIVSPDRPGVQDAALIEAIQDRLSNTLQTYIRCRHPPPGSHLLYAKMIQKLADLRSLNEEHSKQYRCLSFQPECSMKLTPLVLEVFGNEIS

Structure (SMILES)	affinities for the VDR, compared among the three Vitamin D hormones
C=C1/C(=C\C=C2/CCC[C@]3(C)[C@@H]([C@H](C)/C=C/[C@@](C)(O)C(C)C)CC[C@@H]23)C[C@@H](O)C[C@@H]1O [1α,24(S)-dihydroxyvitamin D2]	nearly identical
C=C1/C(=C\C=C2/CCC[C@]3(C)[C@@H]([C@H](C)/C=C/[C@H](C)C(C)(C)O)CC[C@@H]23)C[C@@H](O)C[C@@H]1O [1α,25-dihydroxyvitamin D2]	nearly identical
